From US7799805B2, “Piperidine carboxylic acid amide derivatives” (Actelion Pharmaceuticals Ltd., priority 2005, dated 2010)

Target: T1, recombinant human renin (Homo sapiens, UniProt P00797)
T1 sequence (P00797 67-406): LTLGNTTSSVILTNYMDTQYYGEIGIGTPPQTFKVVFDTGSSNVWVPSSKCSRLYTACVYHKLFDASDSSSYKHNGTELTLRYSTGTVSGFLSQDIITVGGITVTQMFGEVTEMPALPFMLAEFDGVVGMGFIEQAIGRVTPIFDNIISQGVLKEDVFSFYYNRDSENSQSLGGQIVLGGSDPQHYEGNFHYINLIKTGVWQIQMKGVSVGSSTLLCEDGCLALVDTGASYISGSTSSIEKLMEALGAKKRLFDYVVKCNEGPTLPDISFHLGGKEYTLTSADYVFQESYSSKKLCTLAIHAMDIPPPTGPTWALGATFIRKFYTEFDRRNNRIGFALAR
Assay: Primary renin inhibition assay: IC50 in buffer, 384 well MTP (AngI quantified by EIA)
Description: Enzyme Immuno Assay (EIA) to Estimate AngI Accumulation and Renin Inhibition
96 well MTP (MaxiSorp™, Nunc) were coated with 200 μl conjugate and blocked with 250 μl blocking solution as above, except that the blocking solution contained 3% BSA.
1.3 AngI-EIA in 384 well MTP
The AngI (1-10)/BSA coated MTP were washed 3 times with wash buffer (PBS 1×, 0.01% Tween 20) and filled with 75 μl of primary antibody solution (anti-AngI antiserum, pre-diluted 1:10 in horse serum), diluted to a final concentration of 1:100,000 in assay buffer (PBS 1×, 1 mM EDTA, 0.1% BSA, pH 7.4). 5 μl of the renin reaction (or standards in assay buffer) (see below) were added to the primary antibody solution and the plates were incubated overnight at 4° C. After the incubation the plates were washed 3 times with wash buffer and incubated with secondary antibody [anti-rabbit IgG, linked to horseradish peroxidase (Amersham Bioscience, NA 934V), diluted 1:2,000 in wash buffer] for 2 h at rt. […]
In the second step, the accumulated AngI is measured by an immunological assay (enzyme immuno assay, EIA). […]
Test compounds were dissolved and diluted in 100% DMSO and 2.5 μl added to the premix, then incubated at 37° C. for 3 h. At the end of the incubation period, 5 μl of the renin reaction (or standards in assay buffer) were transferred into EIA assays (as described above) and AngI produced by renin was quantified.

IC50 [nM]	Compound
0.65	O=C([C@H]1[C@H]2CNC[C@@H](C[C@H]1c1ccc(CCCOc3c(F)ccc(F)c3Cl)cc1)N2)N(Cc1cccc(Cl)c1Cl)C1CC1 (racemic) [Example 1, (rac.)-(1R*,5S*,6R*,7R*)-7-{4-[3-(2-Chloro-3,6-difluoro-phenoxy)-propyl]-phenyl}-3,9-diaza-bicyclo[3.3.1]nonane-6-carboxylic acid cyclopropyl-(2,3-dichloro-benzyl)-amide]
0.19	O=C([C@@H]1[C@@H](c2ccc(CCCOc3c(F)ccc(F)c3Cl)cc2)C[C@@H]2CNC[C@H]1N2)N(Cc1cccc(Cl)c1Cl)C1CC1 (racemic) [Example 2, (rac.)-(1R*,5S*,6R*,7S*)-7-{4-[3-(2-Chloro-3,6-difluoro-phenoxy)-propyl]-phenyl}-3,9-diaza-bicyclo[3.3.1]nonane-6-carboxylic acid cyclopropyl-(2,3-dichloro-benzyl)-amide]
